Assay results from patent US20090325964A1, “Piperazine Metabotropic Glutamate Receptor 5 (MGLUR5) Negative Allosteric Modulators For Anxiety/Depression” (Wyeth, priority 2008, published 2009).

Legend:
rat mGluR5 receptor = biological target: T1, rat mGluR5 receptor (Rattus norvegicus, UniProt P31424); test: [3H]-MPEP displacement binding assay, HEK-293 cell membranes expressing rat mGluR5; conditions: [3H]-MPEP displacement, rat mGluR5; read-out: Median Ki
T1 construct: expressed in transfected cells; host or cells: HEK-293
In short: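 Membranes from HEK-293 cells expressing rat mGluR5 (12-25 μg protein), incubated 60 min at room temperature with 4 nM [3H]-MPEP in 50 mM Tris pH 7.5, then filtered. Nonspecific binding defined with 10 μM MPEP.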

mGluR5 = mGluR5 (Rattus norvegicus, UniProt P31424); test: IC50 column under 'Biological Activity' (assay not identified in the shown text; not the binding Ki)
Sequence of mGluR5 (P31424 21-1203): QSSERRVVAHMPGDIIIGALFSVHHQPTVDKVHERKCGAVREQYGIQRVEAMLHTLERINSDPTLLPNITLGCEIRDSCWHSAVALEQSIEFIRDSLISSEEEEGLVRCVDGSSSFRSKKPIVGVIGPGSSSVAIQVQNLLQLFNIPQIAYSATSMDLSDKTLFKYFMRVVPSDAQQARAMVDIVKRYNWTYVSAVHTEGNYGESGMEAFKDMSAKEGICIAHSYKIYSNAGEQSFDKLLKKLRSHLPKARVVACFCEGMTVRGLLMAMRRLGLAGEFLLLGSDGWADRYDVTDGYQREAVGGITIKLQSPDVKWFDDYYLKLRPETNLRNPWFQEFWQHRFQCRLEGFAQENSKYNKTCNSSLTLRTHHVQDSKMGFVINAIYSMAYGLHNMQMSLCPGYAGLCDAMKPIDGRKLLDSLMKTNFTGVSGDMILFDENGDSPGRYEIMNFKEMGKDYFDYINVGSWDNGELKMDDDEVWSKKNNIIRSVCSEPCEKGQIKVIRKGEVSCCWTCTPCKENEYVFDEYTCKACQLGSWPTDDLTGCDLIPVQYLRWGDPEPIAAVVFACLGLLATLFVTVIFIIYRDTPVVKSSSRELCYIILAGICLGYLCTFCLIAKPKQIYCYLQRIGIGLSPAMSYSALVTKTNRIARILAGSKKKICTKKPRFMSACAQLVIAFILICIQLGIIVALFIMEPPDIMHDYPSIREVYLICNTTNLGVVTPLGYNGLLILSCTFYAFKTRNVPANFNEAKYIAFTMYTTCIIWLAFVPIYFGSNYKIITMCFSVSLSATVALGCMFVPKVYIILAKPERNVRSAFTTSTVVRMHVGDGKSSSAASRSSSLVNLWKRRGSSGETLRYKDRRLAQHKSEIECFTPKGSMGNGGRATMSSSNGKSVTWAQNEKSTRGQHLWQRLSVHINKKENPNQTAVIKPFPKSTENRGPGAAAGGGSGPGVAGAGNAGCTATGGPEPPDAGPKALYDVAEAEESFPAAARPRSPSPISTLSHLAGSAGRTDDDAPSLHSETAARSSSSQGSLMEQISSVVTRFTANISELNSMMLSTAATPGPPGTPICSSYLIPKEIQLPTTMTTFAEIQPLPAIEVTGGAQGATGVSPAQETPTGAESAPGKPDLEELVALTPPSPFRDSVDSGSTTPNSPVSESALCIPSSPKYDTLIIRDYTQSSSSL

T1 sequence (P31424 21-1203): as above

SMILES: COc1ccc(C(=O)N2CCN(c3ccc(C#N)cn3)CC2)cc1C#Cc1ccccn1 [Compound 252, 6-{4-[4-methoxy-3-(pyridin-2-ylethynyl)benzoyl]piperazin-1-yl}nicotinonitrile]
- Ki (rat mGluR5 receptor): 0.033 µM
- IC50 (mGluR5): 0.192 µM

SMILES: COc1ccc(N2CCN(C(=O)c3ccc(OC)c(C#Cc4ccccn4)c3)CC2)nn1 [Compound 301, 3-methoxy-6-{4[4-methoxy-3-(pyridin-2-ylethynyl)benzoyl]piperazin-1-yl}pyridazine]
- Ki (rat mGluR5 receptor): 0.083 µM
- IC50 (mGluR5): 0.204 µM

SMILES: COc1ccc(C(=O)N2CCN(c3cccc(C(F)(F)F)c3)CC2)cc1C#Cc1ccccn1 [Compound 187, 1-[4-methoxy-3-(pyridin-2-ylethynyl)benzoyl]-4-[3-(trifluoromethyl)phenyl]piperazine]
- Ki (rat mGluR5 receptor): 0.005 µM
- IC50 (mGluR5): 0.834 µM

SMILES: COc1ccc(C(=O)N2CCN(c3ccccc3Cl)CC2)cc1C#Cc1ccccn1 [Compound 216, 1-(2-chlorophenyl)-4-[4-methoxy-3-(pyridin-2-ylethynyl)benzoyl]piperazine]
- Ki (rat mGluR5 receptor): 0.107 µM
- IC50 (mGluR5): > 1 µM

SMILES: COc1ccc(C(=O)N2CCN(c3ncc(Br)cn3)CC2)cc1C#Cc1ccccn1 [Compound 262, 5-bromo-2-{4-[4-methoxy-3-(pyridin-2-ylethynyl)benzoyl]piperazin-1-yl}pyrimidine]
- Ki (rat mGluR5 receptor): 0.017 µM
- IC50 (mGluR5): 0.148 µM

SMILES: COc1ccc(C(=O)N2CCN(c3nnc(Cl)cc3C)CC2)cc1C#Cc1ccccn1 [Compound 302, 6-chloro-3-{4-[4-methoxy-3-(pyridin-2-ylethynyl)benzoyl]piperazin-1-yl}-4-methylpyridazine]
- Ki (rat mGluR5 receptor): 0.039 µM
- IC50 (mGluR5): > 1 µM

SMILES: COc1ccc(C(=O)N2C[C@@H]3C[C@@H]2CN3c2ccc(F)cc2)cc1C#Cc1ccccn1 [Compound 227, (1S,4R)-2-(4-fluorophenyl)-5-[4-methoxy-3-(pyridin-2-ylethynyl)benzoyl]-2,5-diazabicyclo[2.2.1]heptane]
- Ki (rat mGluR5 receptor): 0.071 µM
- IC50 (mGluR5): > 1 µM

SMILES: COc1ccc(C(=O)N2CCN(c3nc(C)cc(C)n3)CC2)cc1C#Cc1ccccn1 [Compound 192, 2-{4-[4-methoxy-3-(pyridin-2-ylethynyl)benzoyl]piperazin-1-yl}-4,6-dimethylpyrimidine]
- Ki (rat mGluR5 receptor): 0.045 µM
- IC50 (mGluR5): 0.109 µM

SMILES: COc1ccc(C(=O)N2CCN(c3cccc(O)c3)CC2)cc1C#Cc1ccccn1 [Compound 195, 3-{4-[4-methoxy-3-(pyridin-2-ylethynyl)benzoyl]piperazin-1-yl}phenol]
- Ki (rat mGluR5 receptor): 0.026 µM
- IC50 (mGluR5): 0.702 µM

SMILES: COc1ccc(C(=O)N2CCN(c3cccc(C)c3)CC2)cc1C#Cc1ccccn1 [Compound 196, 1-[4-methoxy-3-(pyridin-2-ylethynyl)benzoyl]-4-(3-methylphenyl)piperazine]
- Ki (rat mGluR5 receptor): 0.016 µM
- IC50 (mGluR5): 0.065 µM

SMILES: COc1ccc(C(=O)N2CCN(C(=O)C3CC3)CC2)cc1C#Cc1ccccn1 [Compound 248, 1-(cyclopropylcarbonyl)-4-[4-methoxy-3-(pyridin-2-ylethynyl)benzoyl]piperazine]
- Ki (rat mGluR5 receptor): 0.083 µM
- IC50 (mGluR5): > 1 µM

SMILES: COc1ccc(C(=O)N2CCN(c3ncc(Br)c(OC)n3)CC2)cc1C#Cc1ccccn1 [Compound 197, 5-bromo-4-methoxy-2-{4-[4-methoxy-3-(pyridin-2-ylethynyl)benzoyl]piperazin-1-yl}pyrimidine]
- Ki (rat mGluR5 receptor): 0.012 µM
- IC50 (mGluR5): 0.056 µM

SMILES: COc1ccc(C(=O)N2CCN(c3cccc(Cl)n3)CC2)cc1C#Cc1ccccn1 [Compound 255, 1-(6-chloropyridin-2-yl)-4-[4-methoxy-3-(pyridin-2-ylethynyl)benzoyl]piperazine]
- Ki (rat mGluR5 receptor): 0.009 µM
- IC50 (mGluR5): 0.129 µM

SMILES: O=C(c1ccc(OCC2CC2)c(C#Cc2ccccn2)c1)N1CCN(c2noc3ccccc23)CC1 [Compound 324, 3-(4-{[4-(cyclopropylmethoxy)-3-(pyridin-2-ylethynyl)phenyl]carbonyl}piperazin-1-yl)-1,2-benzisoxazole]
- Ki (rat mGluR5 receptor): 0.005 µM
- IC50 (mGluR5): 0.078 µM

SMILES: COc1ccc(C(=O)N2CCN(c3ncccn3)CC2)cc1C#Cc1cccc(C#N)c1 [Compound 361, 3-({2-methoxy-5-[(4-pyrimidin-2-ylpiperazin-1-yl)carbonyl]phenyl}ethynyl)benzonitrile]
- Ki (rat mGluR5 receptor): 0.064 µM
- IC50 (mGluR5): 0.056 µM

SMILES: COc1ccc(C(=O)N2CCN(c3ccccc3)C(=O)C2)cc1C#Cc1ccccn1 [Compound 329, 4-{[4-methoxy-3-(pyridin-2-ylethynyl)phenyl]carbonyl}-1-phenylpiperazin-2-one]
- Ki (rat mGluR5 receptor): 0.084 µM
- IC50 (mGluR5): 0.118 µM

SMILES: COc1cccc(N2CCN(C(=O)c3ccc(OC)c(C#Cc4ccccn4)c3)CC2)n1 [Compound 213, 1-(6-methoxypyridin-2-yl)-4-[4-methoxy-3-(pyridin-2-ylethynyl)benzoyl]piperazine]
- Ki (rat mGluR5 receptor): 0.011 µM
- IC50 (mGluR5): 0.086 µM

SMILES: COc1ccc(C(=O)N2CCN(c3ncccc3C)CC2)cc1C#Cc1ccccn1 [Compound 208, 1-[4-methoxy-3-(pyridin-2-ylethynyl)benzoyl]-4-(3-methylpyridin-2-yl)piperazine]
- Ki (rat mGluR5 receptor): 0.021 µM
- IC50 (mGluR5): 0.141 µM

SMILES: COc1ccc(C(=O)N2CCN(c3nccnc3Cl)CC2)cc1C#Cc1ccccn1 [Compound 304, 2-chloro-3-{4-[4-methoxy-3-(pyridin-2-ylethynyl)benzoyl]piperazin-1-yl}pyrazine]
- Ki (rat mGluR5 receptor): 0.052 µM
- IC50 (mGluR5): 0.408 µM

SMILES: COc1ccc(C(=O)N2CCN(Cc3ccccc3F)CC2)cc1C#Cc1ccccn1 [Compound 266, 1-(2-fluorobenzyl)-4-[4-methoxy-3-(pyridin-2-ylethynyl)benzoyl]piperazine]
- Ki (rat mGluR5 receptor): 0.033 µM
- IC50 (mGluR5): > 1 µM

SMILES: O=C(c1ccc(F)c(C#Cc2ccccn2)c1)N1CCN(c2noc3ccccc23)CC1 [Compound 316, 3-{4-[4-fluoro-3-(pyridin-2-ylethynyl)benzoyl]piperazin-1-yl}-1,2-benzisoxazole]
- Ki (rat mGluR5 receptor): 0.002 µM
- IC50 (mGluR5): 0.024 µM

SMILES: COc1ccc(C(=O)N2CCN(c3cccc(Cl)c3)C(=O)C2)cc1C#Cc1ccccn1 [Compound 327, 1-(3-chlorophenyl)-4-{[4-methoxy-3-(pyridin-2-ylethynyl)phenyl]carbonyl}piperazin-2-one]
- Ki (rat mGluR5 receptor): 0.04 µM
- IC50 (mGluR5): 0.049 µM

SMILES: COc1ccc(C(=O)N2C[C@H]3C[C@H]2CN3c2cccc(F)c2)cc1C#Cc1ccccn1 [Compound 207, (1R,4S)-2-(3-fluorophenyl)-5-[4-methoxy-3-(pyridin-2-ylethynyl)benzoyl]-2,5-diazabicyclo[2.2.1]heptane]
- Ki (rat mGluR5 receptor): 0.019 µM
- IC50 (mGluR5): 0.306 µM

SMILES: COc1ccc(C(=O)N2C[C@@H]3C[C@@H]2CN3c2ccc(C)cc2)cc1C#Cc1ccccn1 [Compound 226, (1R,4S)-2-[4-methoxy-3-(pyridin-2-ylethynyl)benzoyl]-5-(4-methylphenyl)-2,5-diazabicyclo[2.2.1]heptane]
- Ki (rat mGluR5 receptor): 0.277 µM
- IC50 (mGluR5): > 1 µM

SMILES: COc1ccc(C(=O)N2CCN(S(=O)(=O)c3ccc4ccccc4c3)CC2)cc1C#Cc1ccccn1 [Compound 287, 1-[4-methoxy-3-(pyridin-2-ylethynyl)benzoyl]-4-(2-naphthylsulfonyl)piperazine]
- Ki (rat mGluR5 receptor): 0.07 µM
- IC50 (mGluR5): > 1000 µM

SMILES: COc1ccc(C(=O)N2CCN(c3ncccn3)CC2)cc1C#Cc1ccc(F)cc1 [Compound 362, 2-(4-{3-[(4-fluorophenyl)ethynyl]-4-methoxybenzoyl}piperazin-1-yl)pyrimidine]
- Ki (rat mGluR5 receptor): 0.068 µM
- IC50 (mGluR5): 1.45 µM
